{"source": "paper PMC6030096", "about": "“Synergy of Physico-chemical and Biological Experiments for Developing a Cyclooxygenase-2 Inhibitor” (Scientific Reports, 2018)", "key": {"COX-1 [1]": {"biological_target": "T1, COX-1 (Ovis aries, UniProt P05979)", "T1 construct": "purchased Cayman Chemical Co. 560131", "T1 sequence (P05979 25-600)": "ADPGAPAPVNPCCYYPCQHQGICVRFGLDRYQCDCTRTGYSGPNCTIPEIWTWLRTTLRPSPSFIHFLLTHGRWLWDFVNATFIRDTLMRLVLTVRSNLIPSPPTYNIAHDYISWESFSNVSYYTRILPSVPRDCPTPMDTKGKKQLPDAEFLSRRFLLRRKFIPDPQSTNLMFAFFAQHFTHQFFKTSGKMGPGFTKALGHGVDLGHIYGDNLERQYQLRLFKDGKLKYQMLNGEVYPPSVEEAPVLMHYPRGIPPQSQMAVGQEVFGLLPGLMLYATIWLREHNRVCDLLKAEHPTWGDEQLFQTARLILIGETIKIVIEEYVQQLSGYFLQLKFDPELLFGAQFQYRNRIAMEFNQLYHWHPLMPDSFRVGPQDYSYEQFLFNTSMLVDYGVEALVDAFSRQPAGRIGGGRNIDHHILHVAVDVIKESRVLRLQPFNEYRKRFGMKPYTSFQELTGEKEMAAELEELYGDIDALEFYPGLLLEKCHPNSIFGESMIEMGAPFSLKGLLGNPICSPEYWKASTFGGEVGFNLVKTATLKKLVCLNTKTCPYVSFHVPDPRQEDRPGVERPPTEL", "assay": "Isothermal titration calorimetry with COX-1", "assay_type": "binding", "settings": "ITC", "experimental": "100 µM solution of the compound in HPLC grade DMSO and Tris-HCl buffer (1:9) (pH 7.4) was prepared. 5 µL of enzyme was diluted with 500 µL Tris-HCl buffer. 19 consecutive injections of 2 µL each at 120 s interval were made to the enzyme solution taken in the sample cell. The heat change in the cell was determined. The control titrations for determining the background heat (that was subtracted from the main experiment) were performed by taking buffer solution in the cell and making successive additions of the titrant. The titration heat profiles and the binding parameters were read with Microcal software origin 7.0."}, "[2]": {"tested_on": "carrageenan-induced inflammation in rat", "assay": "Carrageenan induced paw inflammation (pretreatment)", "procedure": "In-vivo biological experiments were performed on male wistar rat (250–300 g). […] The animals were given free supply of food and water. The use of animals for the biological studies was duly permitted by the institutional animal ethical committee (IAEC) of the University. […] All the doses were administered intraperitoneally.\nThe paw thickness of the animals was measured with vernier callipre at 1 h intervals up to the 5th hour and compared with the control.\nFor anti-inflammatory activity, carageenan induced paw edema model with three groups of animals, 5 in each, were used[22]. All the drugs were administered intraperitoneally."}, "COX-1 [3]": {"biological_target": "T2, COX-1 (Homo sapiens, UniProt P23219)", "T2 construct": "endogenous in cells; host or cells: human whole blood (heparinized, venipuncture)", "T2 sequence (P23219 24-599)": "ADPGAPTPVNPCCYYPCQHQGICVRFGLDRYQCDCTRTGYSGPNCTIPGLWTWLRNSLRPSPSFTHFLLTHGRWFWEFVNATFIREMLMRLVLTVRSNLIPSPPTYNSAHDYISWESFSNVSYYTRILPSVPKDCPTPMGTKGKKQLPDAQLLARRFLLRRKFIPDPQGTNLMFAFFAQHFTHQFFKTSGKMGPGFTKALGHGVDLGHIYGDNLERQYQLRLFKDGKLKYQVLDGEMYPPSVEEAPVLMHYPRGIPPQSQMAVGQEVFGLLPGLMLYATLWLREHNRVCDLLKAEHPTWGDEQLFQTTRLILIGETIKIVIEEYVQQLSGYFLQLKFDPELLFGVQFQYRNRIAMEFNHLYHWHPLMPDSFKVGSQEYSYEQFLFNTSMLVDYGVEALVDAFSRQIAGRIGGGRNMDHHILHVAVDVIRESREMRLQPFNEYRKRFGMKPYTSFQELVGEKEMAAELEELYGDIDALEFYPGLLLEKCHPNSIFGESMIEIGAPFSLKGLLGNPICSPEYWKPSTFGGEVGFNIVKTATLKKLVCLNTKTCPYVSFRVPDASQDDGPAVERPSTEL", "assay": "Human whole blood assay for COX-1 (A23187 stimulated TxB2)", "assay_type": "cell-based", "excerpt": "(§1) The use of human blood for the whole blood assay was duly approved by the institutional ethical committee of the University for human subjects. Production of prostaglandin PGE2 during lipopolysaccharide (LPS) stimulated whole blood was used to quantify COX-2 inhibitory activity whereas calcium ionophore (A23187) stimulated thromboxane (TxB2) production was used to measure COX-1 inhibitory activity of the compounds.\nApproval for the use of human blood was taken from the institutional ethical committee of Guru Nanak Dev University Amritsar and informed consent was obtained from the subject[32],[33]. All experiments were performed in accordance with the relevant guidelines and regulations. By venipuncture, the blood sample was collected in heparinized tubes. […] Each sample in duplicate was assayed for TxB2 (the breakdown product of TxA2) using TXB2 Express ELISA kit (Cayman Chemicals, Ann Arbor, MI) by the reported protocol."}, "COX-2": {"biological_target": "T3, COX-2 (Homo sapiens, UniProt P35354)", "T3 sequence (P35354 18-604)": "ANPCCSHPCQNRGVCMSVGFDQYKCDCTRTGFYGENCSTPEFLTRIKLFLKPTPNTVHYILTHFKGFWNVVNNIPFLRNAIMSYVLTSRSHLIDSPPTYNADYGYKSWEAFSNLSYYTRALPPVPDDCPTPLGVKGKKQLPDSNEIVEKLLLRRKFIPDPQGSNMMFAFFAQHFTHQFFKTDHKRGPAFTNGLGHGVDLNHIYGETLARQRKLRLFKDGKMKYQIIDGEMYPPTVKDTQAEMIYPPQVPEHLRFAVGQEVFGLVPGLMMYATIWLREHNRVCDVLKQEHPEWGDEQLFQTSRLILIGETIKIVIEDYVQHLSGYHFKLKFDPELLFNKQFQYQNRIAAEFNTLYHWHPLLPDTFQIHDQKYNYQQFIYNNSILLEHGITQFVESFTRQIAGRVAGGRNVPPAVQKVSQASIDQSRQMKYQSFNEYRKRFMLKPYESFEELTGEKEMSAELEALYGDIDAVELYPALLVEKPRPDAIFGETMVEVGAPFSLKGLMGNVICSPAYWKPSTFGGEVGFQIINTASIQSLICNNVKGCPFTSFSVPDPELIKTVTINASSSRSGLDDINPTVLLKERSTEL", "assay": "Human whole blood assay for COX-2 (LPS stimulated PGE2)", "assay_type": "cell-based", "set-up": "endogenous in cells; host or cells: human whole blood, aspirin-pretreated, LPS-stimulated", "experimental": "as §1\nCOX-2 assay was performed by inactivating COX-1 with 50 µL aspirin (10 µg/mL) per 400 µL of blood sample."}, "[4]": {"biological_target": "T4, 5-LOX (Soybean lipoxygenase) (Glycine max, UniProt P08170)", "T4 construct": "purchased Cayman Chemical Co. 760700", "T4 sequence (P08170 1-839)": "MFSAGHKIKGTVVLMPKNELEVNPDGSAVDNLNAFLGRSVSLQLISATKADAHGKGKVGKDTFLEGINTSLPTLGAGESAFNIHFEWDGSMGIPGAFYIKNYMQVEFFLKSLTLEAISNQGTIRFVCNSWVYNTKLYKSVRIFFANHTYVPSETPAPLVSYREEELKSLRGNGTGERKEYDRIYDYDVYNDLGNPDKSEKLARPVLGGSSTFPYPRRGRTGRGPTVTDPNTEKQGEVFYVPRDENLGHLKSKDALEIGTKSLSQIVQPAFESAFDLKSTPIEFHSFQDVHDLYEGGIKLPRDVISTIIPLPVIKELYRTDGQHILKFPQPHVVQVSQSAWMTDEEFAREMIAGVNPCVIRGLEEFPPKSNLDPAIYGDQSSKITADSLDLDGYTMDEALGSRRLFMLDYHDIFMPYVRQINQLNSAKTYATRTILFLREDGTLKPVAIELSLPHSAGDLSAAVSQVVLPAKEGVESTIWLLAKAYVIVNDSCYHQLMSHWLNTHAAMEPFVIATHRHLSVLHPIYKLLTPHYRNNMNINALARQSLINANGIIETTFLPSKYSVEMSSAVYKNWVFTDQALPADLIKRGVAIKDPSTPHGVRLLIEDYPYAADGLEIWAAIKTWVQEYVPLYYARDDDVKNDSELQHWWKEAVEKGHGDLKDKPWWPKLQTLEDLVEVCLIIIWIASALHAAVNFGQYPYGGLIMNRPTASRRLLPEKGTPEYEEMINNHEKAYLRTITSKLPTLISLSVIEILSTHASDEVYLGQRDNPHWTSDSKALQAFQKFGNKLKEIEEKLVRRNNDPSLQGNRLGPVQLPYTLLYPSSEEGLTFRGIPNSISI", "assay": "Lipoxygenase inhibitory activity assay", "assay_type": "biochemical", "experimental": "10 µL of the compound of each concentration was mixed with 90 µL 5-LOX (Soybean lipoxygenase in assay buffer) in the specified wells of the 96-well plate. Two wells containing assay buffer and AA acted as blanks whereas four wells, each carrying enzyme and AA, were positive controls. 10 µL AA was added to each test well and the plate was shaken for 5 min. Chromogen (100 µL) was added to each well and the plate was again shaken for 5 min. The absorbance of each well at 490 nm was recorded on microplate scanning spectrophotometer. As per the protocol given with the assay kit, the 5-LOX inhibitory activity for each compound at each concentration was determined using the mean of the two values (duplicate experiments) with deviation <5%."}, "COX-1 [5]": {"biological_target": "T1, COX-1", "settings": "previously reported compounds 1 and 2; cited from earlier work"}, "[6]": {"tested_on": "carrageenan induced paw edema", "assay": "Carrageenan induced paw edema, effect on pre-existing inflammation", "assay_type": "in vivo, rat", "settings": "10 mg kg^−1 ip 60 min after carrageenan", "experimental": "Paw thickness (mm) was used as an index of inflammation and measured at 30 min, 1 h, 2 h, 3 h, 4 h, 5 h, 6 h, 8 h, and 24 h after the carrageenan injection.\nPaw thickness (mm) was used as index of inflammation and measured at 30 min, 1 h, 2 h, 3 h, 4 h, 5 h, 6 h, 8 h, and 24 h after the carrageenan injection."}, "[7]": {"tested_on": "acetic acid induced writhings in rat", "assay": "Acetic acid induced writhing (analgesic activity)", "settings": "ip", "procedure": "In-vivo biological experiments were performed on male wistar rat (250–300 g). […] The animals were given free supply of food and water. […] Acetic acid induced algesia model and carragennan induced inflammatory model were used for these studies. […] All the doses were administered intraperitoneally.\nAnalgesic activity was studied using acetic acid induced writhing. Animals in 13 groups, each consisting of 5 animals, were used. Intraperitoneal administration of 0.6% acetic acid induced abdominal writhings that were characterized by arching of back, extension of hind limbs and contraction of abdominal musculature[36]. […] All the drugs were administered intraperitoneally."}}, "data": [{"smiles": "O=C1NC(=O)C(=Cc2cn(C[C@H](O)Cn3c4ccccc4c(=O)c4ccccc43)c3ccccc23)C(=O)N1", "note": "[(S)-3a]", "values": [{"measurement": "TΔS", "setting": "COX-1 [1]", "value": -0.829, "unit": "kcal/mol"}, {"measurement": "ΔG", "setting": "COX-1 [1]", "value": -4.304, "unit": "kcal/mol"}, {"measurement": "ΔH", "setting": "COX-1 [1]", "value": -5.134, "unit": "kcal/mol"}, {"measurement": "reduction of carrageenan induced inflammation", "setting": "[2]; 10 mg kg^−1", "value": 25, "unit": "%"}, {"measurement": "effect on paw inflammation compared with indomethacin", "setting": "[2]; end of 4th and 5th hour", "value": "comparable to that of indomethacin"}, {"measurement": "effect on carageenan induced paw inflammation (paw thickness)", "setting": "[2]; ip 30 min before carageenan, measured up to 5th hour", "value": "Significant decrease"}, {"measurement": "effect on ionophore stimulated TxB2 production", "setting": "COX-1 [3]; 1 µM", "value": "had no effect"}, {"measurement": "Production of TXB2, +Ca^2+ Ionophore", "setting": "COX-1 [3]; final conc 1 µM, A23187 50 µM", "value": "1.95 ± 0.01", "unit": "ng/mL"}, {"measurement": "effect on LPS stimulated PGE2 production", "setting": "COX-2; 1 µM", "value": "inhibited LPS stimulated PGE2 production"}, {"measurement": "Production of PGE2, +LPS", "setting": "COX-2; final conc 1 µM, LPS 10 µg mL^−1", "value": "0.93 ± 0.1", "unit": "ng/mL"}, {"measurement": "IC50", "setting": "[4]", "value": "0.2 ± 0.015", "unit": "µM"}]}, {"smiles": "CC1=NN(c2cccc(Cl)c2)C(=O)C1=Cc1cn(CCCOc2cc(O)c3c(=O)cc(-c4ccccc4)oc3c2)c2ccccc12", "note": "[Compound 1]", "values": [{"measurement": "IC50", "setting": "COX-1 [5]", "value": "118 ± 5.5", "unit": "µM"}]}, {"smiles": "COc1ccc2c(c1)c(CC(=O)O)c(C)n2C(=O)c1ccc(Cl)cc1", "note": "[Indomethacin, reference compound]", "values": [{"measurement": "effect on pre-existing paw edema (paw thickness)", "setting": "[6]; after 5 h of treatment", "value": "decrease paw edema"}, {"measurement": "duration of decrease in paw edema", "setting": "[6]; after 24 h of treatment", "value": "sustained even after 24 h"}, {"measurement": "effect on number of acetic acid induced writhing vs control", "setting": "[7]", "value": "significantly decreased"}]}]}
